Source: patent US11013249B2, “Compositions for controlled release of volatile compounds” (University of Guelph, priority 2016, dated 2021)

Columns and labels:
[1] = 25° C.; cited from earlier work
[2] = test system: P. aphanidermatum; assay: Antimicrobial efficacy of pure CA and PLA-PEO-CA nonwoven; format: cell-based, Pythium aphanidermatum; conditions: 25° C.
Method: (§1) The antimicrobial activity of PLA-PEO-CA nonwoven was tested on two spoilage microorganisms, P. fluorescens and P. aphanidermatum. One of each freshly inoculated P. fluorescens and P. aphanidermatum petri dishes, with the lid removed, were placed in a one-liter glass jar. A piece of PLA-PEO-CA nonwoven or a certain amount of liquid CA was placed in the middle of the jar without touching the petri dishes and the lid was closed immediately. The jar was incubated at 25° C. The growth of the microorganisms was monitored every 24 h for 4 d.

[3] = test system: P. Fluorescens; assay: as above; format: cell-based, Pseudomonas fluorescens; conditions: 25° C.
Method: as §1

[4] = test system: P. Fluorescens; assay: Inhibitory effects of AITC, diacetyl and cinnamaldehyde vapour; format: cell-based, Pseudomonas fluorescens P33; conditions: 25° C.
Method: (§2) P. fluorescens was selected as a model spoilage bacteria, while mould and yeast were isolated from spoiled mung bean sprouts with bacteria excluded by cultivating in potato dextrose broth (PDB) (Sigma, Oakville, ON, Canada) at pH 5.6±0.2. Yeast and P. fluorescens stocks were cultivated in PDB and trypticase soy broth (TSB) (Bacto, BD, Sparks, USA), respectively, at 30° C. for 24 h and diluted with sterile saline solution (NaCl, 8.5 g/L water) to a concentration of 10^6 CFU/mL. An aliquot of 50 μL of the prepared yeast or bacteria suspension was spread on potato dextrose agar (PDA) (Difco, BD, Sparks, USA) or trypticase soy agar (TSA) (Bacto, BD, Sparks, USA), respectively, in 5 cm diameter petri dishes (Fisher Scientific, Ottawa, ON, Canada). Mycelium of mould was inoculated as one spot at the center of the PDA dishes. Two freshly inoculated petri dishes of same microorganism, with their lids removed, were placed in a one-liter glass jar. […] The growth of the microorganisms was monitored by the colony formation for 3 days.

[5] = test system: Mould; assay: as above; format: cell-based, mould isolated from mung bean sprouts; conditions: 25° C.
Method: as §2

[6] = test system: Yeast; assay: as above; format: cell-based, yeast isolated from mung bean sprouts
Method: as §2

[7] = Amount 2 mg in one-liter jar, 25° C.
[8] = Amount 5 mg in one-liter jar, 25° C.
[9] = Amount 10 mg in one-liter jar, 25° C.
[10] = Amount 20 mg in one-liter jar, 25° C.

O=C(O)C=Cc1ccccc1 [cinnamic acid]
0.0047 mm Hg: vapor pressure [1]

O=CC=Cc1ccccc1 [Cinnamaldehyde]
1.8 mm: P. aphanidermatum Day 3, colony diameter ([2]; 30 mg liquid CA in 1 L jar)
+++ (50-150): P. Fluorescens Day 2, visual colony number ([3]; 10 mg liquid CA in 1 L jar) | P. Fluorescens Day 3, visual colony number ([3]; 10 mg liquid CA in 1 L jar) | P. Fluorescens Day 4, visual colony number ([3]; 10 mg liquid CA in 1 L jar) | P. Fluorescens day1, visual colony number ([4]; Amount 2 mg in one-liter jar) | P. Fluorescens day2, visual colony number ([4]; Amount 2 mg in one-liter jar)
5 mm: P. aphanidermatum Day 4, colony diameter ([2]; 2 mg liquid CA in 1 L jar)
+ (less than 15): P. Fluorescens Day 1, visual colony number ([3]; 10 mg liquid CA in 1 L jar) | P. Fluorescens Day 2, visual colony number ([3]; 30 mg liquid CA in 1 L jar) | P. Fluorescens Day 3, visual colony number ([3]; 30 mg liquid CA in 1 L jar) | P. Fluorescens Day 4, visual colony number ([3]; 30 mg liquid CA in 1 L jar) | P. Fluorescens day1, visual colony number ([4]; Amount 10 mg in one-liter jar) | P. Fluorescens day2, visual colony number ([4]; Amount 10 mg in one-liter jar) | P. Fluorescens day1, visual colony number ([4]; Amount 20 mg in one-liter jar) | P. Fluorescens day2, visual colony number ([4]; Amount 20 mg in one-liter jar) | Mould day1, visual colony number ([5]; Amount 5 mg in one-liter jar) | Mould day2, visual colony number ([5]; Amount 5 mg in one-liter jar) | Mould day3, visual colony number ([5]; Amount 5 mg in one-liter jar) | Mould day1, visual colony number ([5]; Amount 10 mg in one-liter jar) | Mould day2, visual colony number ([5]; Amount 10 mg in one-liter jar) | Mould day3, visual colony number ([5]; Amount 10 mg in one-liter jar) | Mould day1, visual colony number ([5]; Amount 20 mg in one-liter jar) | Mould day2, visual colony number ([5]; Amount 20 mg in one-liter jar) | Mould day3, visual colony number ([5]; Amount 20 mg in one-liter jar) | Yeast day1, visual colony number [6, 7] | Yeast day2, visual colony number [6, 7] | Yeast day1, visual colony number [6, 8] | Yeast day2, visual colony number [6, 8] | Yeast day3, visual colony number [6, 8] | Yeast day1, visual colony number [6, 9] | Yeast day2, visual colony number [6, 9] | Yeast day3, visual colony number [6, 9] | Yeast day1, visual colony number [6, 10] | Yeast day2, visual colony number [6, 10] | Yeast day3, visual colony number [6, 10]
1 mm: P. aphanidermatum Day 1, colony diameter ([2]; 5 mg liquid CA in 1 L jar)
1.3 mm: P. aphanidermatum Day 1, colony diameter ([2]; 2 mg liquid CA in 1 L jar)
2 mm: P. aphanidermatum Day 4, colony diameter ([2]; 30 mg liquid CA in 1 L jar)
3.5 mm: P. aphanidermatum Day 4, colony diameter ([2]; 5 mg liquid CA in 1 L jar)
2.8 mm: P. aphanidermatum Day 2, colony diameter ([2]; 2 mg liquid CA in 1 L jar) | P. aphanidermatum Day 3, colony diameter ([2]; 5 mg liquid CA in 1 L jar)
30 mg/L: effective concentration against P. fluorescens ([4]; vapour in one-liter jar) | concentration that inhibited the growth of mould for three days ([5]; vapour in one-liter jar) | effective concentration against yeast ([6]; vapour in one-liter jar, 25° C.)
2.2 mm: P. aphanidermatum Day 3, colony diameter ([2]; 10 mg liquid CA in 1 L jar)
30 µg/mL: MIC ([6]; established on yeast, mould and P. fluorescens from Table 8, read-out: minimum inhibition concentration (MIC))
++ (15-50): P. Fluorescens Day 1, visual colony number ([3]; 2 mg liquid CA in 1 L jar) | P. Fluorescens Day 1, visual colony number ([3]; 5 mg liquid CA in 1 L jar) | P. Fluorescens day1, visual colony number ([4]; Amount 5 mg in one-liter jar) | P. Fluorescens day2, visual colony number ([4]; Amount 5 mg in one-liter jar) | Mould day1, visual colony number ([5]; Amount 2 mg in one-liter jar) | Mould day2, visual colony number ([5]; Amount 2 mg in one-liter jar) | Mould day3, visual colony number ([5]; Amount 2 mg in one-liter jar) | Yeast day3, visual colony number [6, 7]
4 mm: P. aphanidermatum Day 3, colony diameter ([2]; 2 mg liquid CA in 1 L jar)
1.4 mm: P. aphanidermatum Day 2, colony diameter ([2]; 30 mg liquid CA in 1 L jar)
0.7 mm: P. aphanidermatum Day 1, colony diameter ([2]; 30 mg liquid CA in 1 L jar)
2.1 mm: P. aphanidermatum Day 2, colony diameter ([2]; 5 mg liquid CA in 1 L jar)
1.6 mm: P. aphanidermatum Day 2, colony diameter ([2]; 10 mg liquid CA in 1 L jar)
++++ (more than 150): P. Fluorescens Day 2, visual colony number ([3]; 2 mg liquid CA in 1 L jar) | P. Fluorescens Day 3, visual colony number ([3]; 2 mg liquid CA in 1 L jar) | P. Fluorescens Day 4, visual colony number ([3]; 2 mg liquid CA in 1 L jar) | P. Fluorescens Day 2, visual colony number ([3]; 5 mg liquid CA in 1 L jar) | P. Fluorescens Day 3, visual colony number ([3]; 5 mg liquid CA in 1 L jar) | P. Fluorescens Day 4, visual colony number ([3]; 5 mg liquid CA in 1 L jar)
2.7 mm: P. aphanidermatum Day 4, colony diameter ([2]; 10 mg liquid CA in 1 L jar)
0.8 mm: P. aphanidermatum Day 1, colony diameter ([2]; 10 mg liquid CA in 1 L jar)
